Measured values taken from patent US6037365A, “Aminobenzamidinosuccinyl lactone derivatives useful as inhibitors of platelet aggregation” (G.D. Searle & Co., priority 1998, dated 2000).
Counter-ions that a name gives are not always drawn.

These compounds were tested on platelet aggregation in platelet-rich plasma (PRP) (assay: In-Vitro Platelet Aggregation in PRP (ADP-induced)). Settings: Canis lupus familiaris, Platelet, dog PRP, ADP 50 μM final concentration, 1 min preincubation at 37° C., aggregation monitored 1 min; unit inferred; read-out: IC50 (dosage at which 50% of platelet aggregation is inhibited).
Type: cell-based, dogs
Description: In-Vitro Platelet Aggregation in PRP
Healthy male or female dogs were fasted for 8 hours prior to drawing blood; then 30 mL whole blood was collected using a butterfly needle and 30 mL plastic syringe with 3 mL of 0.129M buffered sodium citrate (3.8%). The syringe was rotated carefully as blood was drawn to mix the citrate. Platelet-rich plasma (PRP) was prepared by centrifugation at 975×g for 3.17 minutes at room temperature allowing the centrifuge to coast to a stop without braking. The PRP was removed from the blood with a plastic pipette and placed in a plastic-capped 50 mL Corning conical sterile centrifuge tube which was held at room temperature. Platelet-poor plasma (PPP) was prepared by centrifuging the remaining blood at 2000×g for 15 minutes at room temperature allowing the centrifuge to coast to a stop without braking. The PRP was adjusted with PPP to a count of 2-3×10^8 platelets/mL. The PRP preparation (400 μL) and 50 μL of the compound solution to be tested or saline were preincubated for 1 minute at 37° C. in a BioData aggregometer (BioData, Horsham, Pa.). Adenosine-5'-diphosphate (ADP, 50 μL, 50 μM final concentration) was added to the cuvettes and the aggregation was monitored for 1 minute. All compounds are tested in duplicate. Results are calculated as follows: Percent of control=[(maximal OD minus initial OD of compound) divided by (maximal OD minus initial OD of control saline)]×100. The percent inhibition equals 100-(percent of control).
The compounds tested and their median inhibitory concentrations (IC50) are recorded in Table 1. The IC50 (dosage at which 50% of platelet aggregation is inhibited) were calculated by linear regression of the dose response curve.

| SMILES | IC50 [nM] |
| --- | --- |
| N=C(N)c1ccc(NC(=O)CCC(=O)N[C@H]2CC(=O)OC2c2ccc(F)cc2)cc1 (single isomer, unassigned; diastereoisomer a) [Ex 4 Step 4] | 500 |
| N=C(N)c1ccc(NC(=O)CCC(=O)N[C@@H]2COC(=O)C2)cc1 [Ex 1 Step 4, N-[4-(aminoiminomethyl)phenyl]-N'-(tetrahydro-5-oxo-3S-furanyl)butanediamide, Trifluoroacetate] | 3000 |
| N=C(N)c1ccc(NC(=O)CCC(=O)N[C@H](CO)CC(=O)O)cc1 [Ex 1 Step 5, 3S-[[4-[[4-aminoiminomethyl)phenyl]amino]-1,4-dioxobutyl]amino]-4-hydroxybutanoic acid, trifluoroacetate] | 700 |
| C=CC(O)[C@H](CC(=O)O)NC(=O)CCC(=O)Nc1ccc(C(=N)N)cc1 (stereo partly drawn) [Ex 7 Step 5, 3S-[[4-[[4-(aminoiminomethyl)phenyl]amino]-1,4-dioxobutyl]amino]-4-hydroxy-hex-5-enoic acid, trifluoroacetate] | 290 |
| N=C(N)c1ccc(NC(=O)CCC(=O)NC(CC(=O)O)c2ccccc2O)cc1 (centres unmarked) [Ex 8 Step 1, 3-[[4-[[4-(aminoiminomethyl)phenyl]-amino]-1,4-dioxobutyl]amino-]3(-hydroxyphenyl)propanoic acid] | 260 |
| N=C(N)c1ccc(NC(=O)CCC(=O)NC2CC(=O)Oc3ccccc32)cc1 (centres unmarked) [Ex 8 Step 2, N-[4-(aminoiminomethyl)phenyl]-N'-[3,4-dihydro-2-oxo-2H-1-benzopyran-4-yl]butanediamide, Trifluoroacetate] | 200 |

Same assay, conditions: dog PRP, ADP 50 μM final concentration, 1 min preincubation at 37° C., aggregation monitored 1 min; unit inferred; read-out: IC50 (dosage at which 50% of platelet aggregation is inhibited)

| SMILES | IC50 [nM] |
| --- | --- |
| N=C(N)c1ccc(NC(=O)CCC(=O)N[C@@H](CC(=O)O)C(O)c2ccccc2)cc1 (single isomer, unassigned) [Ex 2 Step 6, 3S-[[4-[[4-(aminoiminomethyl)phenyl]amino]-1,4dioxobutyl]amino]-4-hydroxy-phenyl-butanoic acid, trifluoroacetate] | 1600 |
| N=C(N)c1ccc(NC(=O)CCC(=O)N[C@@H](CC(=O)O)C(O)c2ccccc2)cc1 (single isomer, unassigned) [Ex 3 Step 2, 3S-[[4-[[4-(aminoiminomethyl)phenyl]amino]-1,4-dioxobutyl]amino]-4-hydroxy-phenylbutanoic acid, trifluoroacetate] | 600 |
| N=C(N)c1ccc(NC(=O)CCC(=O)N[C@@H](CC(=O)O)C(O)c2ccc(F)cc2)cc1 (single isomer, unassigned) [Ex 4 Step 5, 3S-[[4-[[4-(aminoiminomethyl)phenyl]amino]-1,4-dioxobutyl]amino]-4-hydroxy-(4-fluoro-phenyl)butanoic acid, trifluoroacetate] | 150 |
| N=C(N)c1ccc(NC(=O)CCC(=O)N[C@@H](CC(=O)O)C(O)c2ccc(F)cc2)cc1 (single isomer, unassigned) [Ex 5 Step 2, 3S-[[4-[[4-(aminoiminomethyl)-phenyl]amino]-1,4-]dioxobutyl]amino]-4-hydroxy-(4-fluoro-phenyl)butanoic acid, trifluoroacetate] | 800 |
| N=C(N)c1ccc(NC(=O)CCC(=O)N[C@@H](CC(=O)O)C(O)c2ccc3c(c2)OCO3)cc1 (single isomer, unassigned) [Ex 9 Step 6, 3S-[[4-[[4-(aminoiminomethyl)phenyl]amino]-1,4-dioxobutyl]amino]-4-hydroxy-[5-(1,3-benzodioxolyl)]butanoic acid, trifluoroacetate] | 350 |
| N=C(N)c1ccc(NC(=O)CCC(=O)N[C@@H](CC(=O)O)C(O)c2ccc3c(c2)OCO3)cc1 (single isomer, unassigned) [Ex 10 Step 2, 3S-[[4-[[4-(aminoiminomethyl)phenyl]amino]-1,4-dioxobutyl]amino-4-hydroxy-4-[5-(1,3-benzodioxolyl)]butanoic acid, trifluoroacetate] | 1300 |
| N=C(N)c1ccc(NC(=O)CCC(=O)N[C@H]2CC(=O)OC2c2ccc3c(c2)OCO3)cc1 (single isomer, unassigned; diastereoisomer 1) [Ex 9 Step 5, N-[4-(aminoiminomethyl)phenyl]-N'-[tetrahydro-5-oxo-2-[5-(1,3-benzodioxolyl)]-3S-furanyl]butanediamide, Trifluoroacetate; Diastereoisomer 1] | 430 |
| N=C(N)c1ccc(NC(=O)CCC(=O)N[C@H]2CC(=O)OC2c2ccc3c(c2)OCO3)cc1 (single isomer, unassigned; diastereoisomer 2) [Ex 10 Step 1] | 3000 |
| N=C(N)c1ccc(NC(=O)CCC(=O)N[C@H]2CC(=O)OC2c2ccccc2)cc1 (single isomer, unassigned; isomer a) [Ex 2 Step 5, N-[4-(aminoiminomethyl)phenyl]-N'-(tetrahydro-5-oxo-2-phenyl-3S-furanyl)butanediamide, Trifluoroacetate (Isomer A)] | 650 |
| N=C(N)c1ccc(NC(=O)CCC(=O)N[C@H]2CC(=O)OC2c2ccccc2)cc1 (single isomer, unassigned; isomer b) [Ex 3 Step 1, N-[4-(aminoiminomethyl)phenyl]-N'-(tetrahydro-5-oxo-2-phenyl-3S-furanyl)butanediamide, trifluoroacetate (Isomer B)] | 2500 |
| N=C(N)c1ccc(NC(=O)CCC(=O)NC(CC(=O)O)C(O)c2nccs2)cc1 (stereo not drawn) [Ex 6 Step 6, 3S-[[4-[[4-(aminoiminomethyl)phenyl]amino]-1,4-dioxobutyl]amino]-4-hydroxy-2-thiazolylbutanoic acid, trifluoroacetate] | 450 |
